Values after ≈ are worked out from the molar mass of the structure shown. Values belong to the compound of their own block, whether it stands above or below them.
Columns and labels:
Assay type in all cases: functional
[1] = system: Klebsiella pneumoniae; assay: In vitro minimal inhibitory concentration (MIC) of compound in combination with piperacillin (PIPC) showed synergic activity against Klebsiella pneumoniae CTX 1
[2] = system: Escherichia coli; assay: In vitro minimal inhibitory concentration (MIC) of compound in combination with piperacillin (PIPC) showed synergic activity against Escherichia coli TEM 3
[3] = system: Proteus vulgaris; assay: In vitro minimal inhibitory concentration (MIC) of compound in combination with piperacillin (PIPC) showed synergic activity against Proteus vulgaris CT 106
[4] = system: Escherichia coli; assay: In vitro minimal inhibitory concentration (MIC) of compound in combination with piperacillin (PIPC) showed synergic activity against Escherichia coli TEM 7
[5] = system: Klebsiella aerogenes; assay: In vitro minimal inhibitory concentration (MIC) of compound in combination with piperacillin (PIPC) showed synergic activity against Enterobacter aerogenes 41003
[6] = system: Pseudomonas aeruginosa; assay: In vitro minimal inhibitory concentration (MIC) of compound in combination with piperacillin (PIPC) showed synergic activity against Pseudomonas aeruginosa 46220 (DR-2)
[7] = system: Staphylococcus aureus; assay: In vitro minimal inhibitory concentration (MIC) of compound in combination with piperacillin (PIPC) showed synergic activity against Staphylococcus aureus 54K
[8] = system: Citrobacter freundii; assay: In vitro minimal inhibitory concentration (MIC) of compound in combination with piperacillin (PIPC) showed synergic activity against Citrobacter freundii 2046E
[9] = system: Enterobacter cloacae; assay: In vitro minimal inhibitory concentration (MIC) of compound in combination with piperacillin (PIPC) showed synergic activity against Enterobacter cloacae 40015
[10] = system: Klebsiella aerogenes; assay: In vitro minimal inhibitory concentration (MIC) of compound in combination with piperacillin (PIPC) showed synergic activity against Enterobacter aerogenes 41004
[11] = system: Morganella morganii; assay: In vitro minimal inhibitory concentration (MIC) of compound in combination with piperacillin (PIPC) showed synergic activity against Morganella morganii 36014
[12] = system: Klebsiella aerogenes; assay: In vitro minimal inhibitory concentration (MIC) of compound in combination with piperacillin (PIPC) showed synergic activity against Enterobacter aerogenes 41006
[13] = system: Escherichia coli; assay: In vitro minimal inhibitory concentration (MIC) of compound in combination with piperacillin (PIPC) showed synergic activity against Escherichia coli OXA 3
[14] = system: Citrobacter freundii; assay: In vitro minimal inhibitory concentration (MIC) of compound in combination with piperacillin (PIPC) showed synergic activity against Citrobacter freundii 44032
[15] = system: Escherichia coli; assay: In vitro minimal inhibitory concentration (MIC) of compound in combination with piperacillin (PIPC) showed synergic activity against Escherichia coli OXA 1
[16] = system: Escherichia coli; assay: In vitro minimal inhibitory concentration (MIC) of compound in combination with piperacillin (PIPC) showed synergic activity against Escherichia coli SHV 1
[17] = system: Enterobacter cloacae; assay: In vitro minimal inhibitory concentration (MIC) of compound in combination with piperacillin (PIPC) showed synergic activity against Enterobacter cloacae P99
[18] = system: Escherichia coli; assay: In vitro minimal inhibitory concentration (MIC) of compound in combination with piperacillin (PIPC) showed synergic activity against Escherichia coli SHV 5
[19] = system: Staphylococcus aureus; assay: In vitro minimal inhibitory concentration (MIC) of compound in combination with piperacillin (PIPC) showed synergic activity against Staphylococcus aureus 80K
[20] = system: Serratia marcescens; assay: In vitro minimal inhibitory concentration (MIC) of compound in combination with piperacillin (PIPC) showed synergic activity against Serratia marcescens 200 L
[21] = system: Enterobacter cloacae; assay: In vitro minimal inhibitory concentration (MIC) of compound in combination with piperacillin (PIPC) showed synergic activity against Enterobacter cloacae 40011
[22] = system: Klebsiella aerogenes; assay: In vitro minimal inhibitory concentration (MIC) of compound against Enterobacter aerogenes S-97
[23] = system: Klebsiella aerogenes; assay: In vitro minimal inhibitory concentration (MIC) of compound against Enterobacter aerogenes 41004
[24] = system: Citrobacter freundii; assay: In vitro minimal inhibitory concentration (MIC) of compound against Citrobacter freundii CT 76
[25] = system: Klebsiella pneumoniae; assay: In vitro minimal inhibitory concentration (MIC) of compound against Klebsiella pneumoniae CTX 1
[26] = system: Proteus vulgaris; assay: In vitro minimal inhibitory concentration (MIC) of compound against Proteus vulgaris CT 106
[27] = system: Enterobacter cloacae; assay: In vitro minimal inhibitory concentration (MIC) of compound against Enterobacter cloacae E40002
[28] = system: Enterobacter cloacae; assay: In vitro minimal inhibitory concentration (MIC) of compound against Enterobacter cloacae S-65
[29] = system: Klebsiella aerogenes; assay: In vitro minimal inhibitory concentration (MIC) of compound against Enterobacter aerogenes 41006
[30] = system: Escherichia coli; assay: In vitro minimal inhibitory concentration (MIC) of compound against Escherichia coli TEM 7
[31] = system: Pseudomonas aeruginosa; assay: In vitro minimal inhibitory concentration (MIC) of compound against Pseudomonas aeruginosa CT-137
[32] = system: Pseudomonas aeruginosa; assay: In vitro minimal inhibitory concentration (MIC) of compound against Pseudomonas aeruginosa 46220 (DR-2)
[33] = system: Enterobacter cloacae; assay: In vitro minimal inhibitory concentration (MIC) of compound against Enterobacter cloacae S-11
[34] = system: Klebsiella aerogenes; assay: In vitro minimal inhibitory concentration (MIC) of compound against Enterobacter aerogenes 41003
[35] = system: Morganella morganii; assay: In vitro minimal inhibitory concentration (MIC) of compound against Morganella morganii 36030
[36] = system: Enterobacter cloacae; assay: In vitro minimal inhibitory concentration (MIC) of compound against Enterobacter cloacae P99
[37] = system: Morganella morganii; assay: In vitro minimal inhibitory concentration (MIC) of compound against Morganella morganii 36014
[38] = system: Pseudomonas aeruginosa; assay: In vitro minimal inhibitory concentration (MIC) of compound against Pseudomonas aeruginosa CT-122
[39] = system: Escherichia coli; assay: In vitro minimal inhibitory concentration (MIC) of compound against Escherichia coli TEM 3
[40] = system: Enterobacter cloacae; assay: In vitro minimal inhibitory concentration (MIC) of compound against Enterobacter cloacae 40011
[41] = system: Citrobacter freundii; assay: In vitro minimal inhibitory concentration (MIC) of compound against Citrobacter freundii 44032
[42] = system: Pseudomonas aeruginosa; assay: In vitro minimal inhibitory concentration of compound against Pseudomonas aeruginosa 46220 (DR-2)
[43] = system: Escherichia coli; assay: In vitro minimal inhibitory concentration of compound against Escherichia coli OXA 3
[44] = system: Enterobacter cloacae; assay: In vitro minimal inhibitory concentration of compound against Enterobacter cloacae 40011
[45] = system: Citrobacter freundii; assay: In vitro minimal inhibitory concentration of compound against Citrobacter freundii 2046E
[46] = system: Proteus vulgaris; assay: In vitro minimal inhibitory concentration of compound against Proteus vulgaris CT 106
[47] = system: Escherichia coli; assay: In vitro minimal inhibitory concentration of compound against Escherichia coli OXA 1
[48] = system: Klebsiella aerogenes; assay: In vitro minimal inhibitory concentration of compound against Enterobacter aerogenes 41003
[49] = system: Serratia marcescens; assay: In vitro minimal inhibitory concentration of compound against Serratia marcescens 200 L
[50] = system: Escherichia coli; assay: In vitro minimal inhibitory concentration of compound against Escherichia coli SHV 5
[51] = system: Escherichia coli; assay: In vitro minimal inhibitory concentration of compound against Escherichia coli TEM 7
[52] = system: Citrobacter freundii; assay: In vitro minimal inhibitory concentration of compound against Citrobacter freundii 44032
[53] = system: Staphylococcus aureus; assay: In vitro minimal inhibitory concentration of compound against Staphylococcus aureus 80K
[54] = system: Enterobacter cloacae; assay: In vitro minimal inhibitory concentration of compound against Enterobacter cloacae 40015
[55] = system: Escherichia coli; assay: In vitro minimal inhibitory concentration of compound against Escherichia coli SHV 1
[56] = system: Morganella morganii; assay: In vitro minimal inhibitory concentration of compound against Morganella morganii 36014
[57] = system: Staphylococcus aureus; assay: In vitro minimal inhibitory concentration of compound against Staphylococcus aureus 54K
[58] = system: Escherichia coli; assay: In vitro minimal inhibitory concentration of compound against Escherichia coli TEM 3
[59] = system: Klebsiella pneumoniae; assay: In vitro minimal inhibitory concentration of compound against Klebsiella pneumoniae CTX 1
[60] = system: Klebsiella aerogenes; assay: In vitro minimal inhibitory concentration of compound against Enterobacter aerogenes 41006
[61] = system: Klebsiella aerogenes; assay: In vitro minimal inhibitory concentration of compound against Enterobacter aerogenes 41004
[62] = system: Enterobacter cloacae; assay: In vitro minimal inhibitory concentration of compound against Enterobacter cloacae P99

MIC [1]: 6.25 mg/L
MIC [2]: 3.13 mg/L
MIC [3]: 1.56 mg/L
MIC [4]: 0.78 mg/L
MIC [5]: 12.5 mg/L
MIC [6]: 12.5 mg/L
MIC [7]: 0.78 mg/L
MIC [8]: 0.78 mg/L
MIC [9]: 50 mg/L
MIC [10]: 12.5 mg/L
MIC [11]: ≤ 0.2 mg/L
MIC [12]: 100 mg/L
MIC [13]: 1.56 mg/L
MIC [14]: 200 mg/L
MIC [15]: 3.13 mg/L
MIC [16]: 1.56 mg/L
MIC [17]: 25 mg/L
MIC [18]: ≤ 0.2 mg/L
MIC [19]: 0.39 mg/L
MIC [20]: 0.78 mg/L
MIC [21]: 6.25 mg/L
SMILES: CCN1CCN(C(=O)NC(C(=O)N[C@@H]2C(=O)N3[C@@H]2SC(C)(C)[C@@H]3C(=O)O)c2ccccc2)C(=O)C1=O.C[C@]1(Cn2ccnn2)[C@H](C(=O)[O-])N2C(=O)CC2S1(=O)=O.[Na+] (some centres undefined)

MIC [1]: 12.5 mg/L
MIC [2]: 3.13 mg/L
MIC [3]: 25 mg/L
MIC [4]: 1.56 mg/L
MIC [5]: 3.13 mg/L
MIC [6]: 6.25 mg/L
MIC [7]: 6.26 mg/L
MIC [8]: 1.56 mg/L
MIC [9]: 25 mg/L
MIC [10]: 6.25 mg/L
MIC [11]: 0.39 mg/L
MIC [12]: 12.5 mg/L
MIC [13]: 1.56 mg/L
MIC [14]: 12.5 mg/L
MIC [15]: 1.56 mg/L
MIC [16]: 3.13 mg/L
MIC [17]: 12.5 mg/L
MIC [18]: 1.56 mg/L
MIC [19]: 3.13 mg/L
MIC [20]: 3.13 mg/L
MIC [21]: 6.25 mg/L
SMILES: CC(=O)[C@@]1(C)[C@H](C(=O)[O-])N2C(=O)CC2S1(=O)=O.CCN1CCN(C(=O)NC(C(=O)N[C@@H]2C(=O)N3[C@@H]2SC(C)(C)[C@@H]3C(=O)O)c2ccccc2)C(=O)C1=O.[Na+] (some centres undefined)

SMILES: CC(C)(O/N=C(\C(=O)N[C@@H]1C(=O)N2C(C(=O)[O-])=C(C[n+]3ccccc3)CS[C@H]12)c1csc(N)n1)C(=O)O [CEFTAZIDIME]
MIC [22]: 8 mg/L (≈ 14.6 µM)
MIC [23]: 12.5 mg/L (≈ 22.9 µM)
MIC [24]: 50 mg/L (≈ 91.5 µM)
MIC [25]: 100 mg/L (≈ 183 µM)
MIC [26]: 12.5 mg/L (≈ 22.9 µM)
MIC [27]: 200 mg/L (≈ 366 µM)
MIC [28]: 2 mg/L (≈ 3.66 µM)
MIC [29]: 200 mg/L (≈ 366 µM)
MIC [30]: 12.5 mg/L (≈ 22.9 µM)
MIC [31]: 16 mg/L (≈ 29.3 µM)
MIC [32]: 25 mg/L (≈ 45.7 µM)
MIC [33]: 2 mg/L (≈ 3.66 µM)
MIC [34]: 12.5 mg/L (≈ 22.9 µM)
MIC [35]: > 32 mg/L
MIC [36]: 100 mg/L (≈ 183 µM)
MIC [37]: 25 mg/L (≈ 45.7 µM)
MIC ([37]; Morganella morganii, read-out: MIC): > 32 mg/L
MIC [38]: 32 mg/L (≈ 58.5 µM)
MIC [39]: 25 mg/L (≈ 45.7 µM)
MIC [40]: 25 mg/L (≈ 45.7 µM)
MIC [41]: 400 mg/L (≈ 732 µM)

SMILES: CCN1CCN(C(=O)N[C@@H](C(=O)N[C@@H]2C(=O)N3[C@@H]2SC(C)(C)[C@@H]3C(=O)O)c2ccccc2)C(=O)C1=O [PIPERACILLIN]
MIC [42]: 100 mg/L (≈ 193 µM)
MIC [43]: 3.13 mg/L (≈ 6.05 µM)
MIC [44]: 50 mg/L (≈ 96.6 µM)
MIC [45]: > 400 mg/L
MIC [46]: 200 mg/L (≈ 386 µM)
MIC [47]: 25 mg/L (≈ 48.3 µM)
MIC [48]: 12.5 mg/L (≈ 24.2 µM)
MIC [49]: 200 mg/L (≈ 386 µM)
MIC [50]: 200 mg/L (≈ 386 µM)
MIC [51]: > 400 mg/L
MIC [52]: 200 mg/L (≈ 386 µM)
MIC [53]: 50 mg/L (≈ 96.6 µM)
MIC [54]: 100 mg/L (≈ 193 µM)
MIC [55]: > 400 mg/L
MIC [56]: 50 mg/L (≈ 96.6 µM)
MIC [57]: 200 mg/L (≈ 386 µM)
MIC [58]: 200 mg/L (≈ 386 µM)
MIC [59]: > 400 mg/L
MIC [60]: 100 mg/L (≈ 193 µM)
MIC [61]: 12.5 mg/L (≈ 24.2 µM)
MIC [62]: 100 mg/L (≈ 193 µM)

— ChEMBL document CHEMBL1129860, “Studies on penam sulfones III. Synthesis and -lactamase inhibitory activity of sodium (6R)-6-(-hydroxybenzyl)-2-methoxyiminomethyl-2-methylpenam-3-carboxylate 1,1-dioxide and sodium 2-acyl-2-methylpenam-3-carboxylate 1,1-dioxide” (1997)
